“And” between values parts separate entries of the source, which are not always exact repeats. Equal values may be shown once.
Tested on: 817829-284-R-J1-PDC complex spheroid viability
Assay: Anticancer human tumor 817829-284-R-J1-PDC patient-derived colon adenocarcinoma cell line growth inhibition [POLQ]
Conditions: for viability, T/C: stronger effect = lower value
Procedure: Multicellular complex tumor spheroid response to Polymerase (POL) inhibitors (novobiocin, ART-558, RP6685) in combination with a variety of drugs and investigational agents in selected tumor cell lines
The POL inhibitors (novobiocin, ART-558, and RP6685) were evaluated both individually and in combination with standard of care and investigational anticancer small molecules within a complex spheroid model of solid tumors. . Complex spheroids include a stromal component modeled by human endothelial cells (HUVEC) and fibroblasts modeled by human mesenchymal stem cells (MSCs). The concentration ranges selected for each drug and investigational agent were based upon clinically achievable concentrations if the clinical Cmax of the agent was known.
Compounds. The drugs and investigational agents: novobiocin (NSC847541), ART-558 (NSC835418), RP-6685 (NSC848927), peposertib (NSC802822), ceralasertib (NSC780249), elimusertib (NSC800525), camonsertib (NSC841442), AZD-1390 (NSC803789), olaparib (NSC753686), talazoparib (NSC767125), rucaparib (NSC756644), sotorasib (NSC818433), MRTX-1133 (NSC836407), SN-38 (NSC673596), topotecan (NSC609699), epotoside (NSC141540), doxorubicin (NSC123127), gemcitabine (NSC613327), 5-fluorouracil (NSC19893), paclitaxel (NSC125973), vemurafenib (NSC761431), MSA-2 (NSC828583), SN-011 (NSC837082), adavosertib (NSC754352), prexasertib (NSC758257), carboplatin (NSC241240) and oxaliplatin (NSC266046), were obtained from the National Cancer Institute (NCI) Developmental Therapeutics Program Chemical Repository (21). The FDA-approved anticancer drug set is available from the Developmental Therapeutics Program at https://dtp.cancer.gov/organization/dscb/obtaining/. […] The stock solutions were prepared in dimethyl sulfoxide (DMSO, Sigma-Aldrich, St. Louis, MO, cat. D2650), except for the platinum compounds which were prepared in saline (Quality Biological, Gaithersburg, MD, cat. 114-055-101), at 800-fold the tested concentration and stored at -70 degrees C prior to their use. All drugs and investigational agents were tested over a range starting from a high concentration at or near the clinical Cmax and decreasing in half-log increments. If the clinical Cmax for an agent had not been determined, the highest concentration tested was 10 microM, except for SN-38, which was tested at a high concentration of 1 microM.
Cell Culture. All cells were maintained in an incubator at 37 degrees C and 5% CO2 with 95% humidity. The PDC lines were cultured according to standard operating procedures established by the NCI PDMR (https://pdmr.cancer.gov). Table 3 of the manuscript, lists the cell lines along with the number of the three cell types plated to form the mct-spheroids and media for tumor cell growth. After thawing, all PDC lines, except 997537-175-T-J1-PDC and 415267-285-R-J2-PDC, were cultured in Matrigel-coated flasks prepared with a working solution of 1X Ham's F-12 nutrient mix, without supplementation (Thermo Fisher Scientific, cat. 11765054), 100 U/mL penicillin-streptomycin (Thermo Fisher Scientific, cat. 15140122), and 2.5% Matrigel (Corning Inc., Corning, NY, cat. 354248) for the first three passages. The two PDC lines 997537-175-T-J1-PDC and 415267-285-R-J2-PDC were cultured on uncoated flasks. The 857933-349-R-J2-PDC line was cultured in 6C/Colon 1B media containing advanced DMEM/F-12 (Thermo Fisher Scientific, cat. 12634028), 10 mM HEPES (Thermo Fisher Scientific, cat. 15630080), 1X GlutaMAX supplement (Thermo Fisher Scientific, cat. 35050061), 0.1 mg/mL primocin (InvivoGen, San Diego, CA, cat. ant-pm-2), 10% defined fetal bovine serum, heat inactivated (HyClone Laboratories Inc., Logan, UT, cat. SH30070.03HI), 50% L-WRN conditioned media (ATCC, cat. CRL-3276), 1.25 mM N-Acetyl-L-cysteine (Sigma-Aldrich, cat. A9165), 10 mM nicotinamide (Sigma-Aldrich, cat. N0636), 1X B-27 supplement (Thermo Fisher Scientific, cat. 17504044), 1X N-2 supplement (Thermo Fisher Scientific, cat. […]
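Note: spheroids exposed to compounds for 7 days.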
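Throughout, for viability, T/C: 100% = DMSO vehicle-treated spheroids.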

COc1ccc([C@@H](O)c2cc(-c3ncnc4cc(N5CCOCC5)ccc34)c(F)cc2Cl)nn1
viability, T/C (compound 0.0316 µM): 79.4% and 93.7% and 78.8% | viability, T/C (compound 0.1 µM): 94.5% and 91% and 91.4% | viability, T/C (compound 0.316 µM): 65.4% and 72.2% and 74.5% | viability, T/C (compound 1 µM): 41% and 43.4% and 43.2% | viability, T/C (compound 3.16 µM): 30.4% and 40.3% and 25.8% | viability, T/C (compound 10 µM): 19.4% and 22.7% and 12.3% | IC50 (curve of compound): 0.684 µM and 0.894 µM and 0.83 µM

COc1cc2cc(C(=O)CCC(=O)O)sc2cc1OC + Cc1cccc(N(C)C(=O)C2C(O)CCN2c2nc(C)cc(C(F)(F)F)c2C#N)c1
IC50 (curve of first compound, second compound 0.0316 µM): > 10 µM | IC50 (curve of first compound, second compound 0.1 µM): > 10 µM | IC50 (curve of first compound, second compound 0.316 µM): > 10 µM | IC50 (curve of first compound, second compound 1 µM): > 10 µM | IC50 (curve of first compound, second compound 3.16 µM): > 10 µM | IC50 (curve of first compound, second compound 10 µM): > 10 µM | viability, T/C (second compound 0.0316 µM, first compound 0.0316 µM): 100% | viability, T/C (second compound 0.0316 µM, first compound 0.1 µM): 93.1% | viability, T/C (second compound 0.0316 µM, first compound 0.316 µM): 89% | viability, T/C (second compound 0.0316 µM, first compound 1 µM): 88.5% | viability, T/C (second compound 0.0316 µM, first compound 3.16 µM): 114% | viability, T/C (second compound 0.0316 µM, first compound 10 µM): 96.2% | viability, T/C (second compound 0.1 µM, first compound 0.0316 µM): 113% | viability, T/C (second compound 0.1 µM, first compound 0.1 µM): 97% | viability, T/C (second compound 0.1 µM, first compound 0.316 µM): 99.5% | viability, T/C (second compound 0.1 µM, first compound 1 µM): 105% | viability, T/C (second compound 0.1 µM, first compound 3.16 µM): 98.7% | viability, T/C (second compound 0.1 µM, first compound 10 µM): 102% | viability, T/C (second compound 0.316 µM, first compound 0.0316 µM): 101% | viability, T/C (second compound 0.316 µM, first compound 0.1 µM): 90.5% | viability, T/C (second compound 0.316 µM, first compound 0.316 µM): 99% | viability, T/C (second compound 0.316 µM, first compound 1 µM): 108% | viability, T/C (second compound 0.316 µM, first compound 3.16 µM): 107% | viability, T/C (second compound 0.316 µM, first compound 10 µM): 108% | viability, T/C (second compound 1 µM, first compound 0.0316 µM): 102% | viability, T/C (second compound 1 µM, first compound 0.1 µM): 88.2% | viability, T/C (second compound 1 µM, first compound 0.316 µM): 96.7% | viability, T/C (second compound 1 µM, first compound 1 µM): 116% | viability, T/C (second compound 1 µM, first compound 3.16 µM): 105% | viability, T/C (second compound 1 µM, first compound 10 µM): 104% | viability, T/C (second compound 3.16 µM, first compound 0.0316 µM): 91.1% | viability, T/C (second compound 3.16 µM, first compound 0.1 µM): 111% | viability, T/C (second compound 3.16 µM, first compound 0.316 µM): 117% | viability, T/C (second compound 3.16 µM, first compound 1 µM): 93.8% | viability, T/C (second compound 3.16 µM, first compound 3.16 µM): 100% | viability, T/C (second compound 3.16 µM, first compound 10 µM): 96.9% | viability, T/C (second compound 10 µM, first compound 0.0316 µM): 87.7% | viability, T/C (second compound 10 µM, first compound 0.1 µM): 86.8% | viability, T/C (second compound 10 µM, first compound 0.316 µM): 112% | viability, T/C (second compound 10 µM, first compound 1 µM): 89.6% | viability, T/C (second compound 10 µM, first compound 3.16 µM): 109% | viability, T/C (second compound 10 µM, first compound 10 µM): 89.6%

Source: PubChem BioAssay AID1963839 (Molecular Pharmacology Branch, DTP, NCI, 2024)
